Values after ≈ are worked out from the molar mass of the structure shown.
Tests used:
Assay type in all cases: cell-based
Pseudomonas #28 = assay: In vitro minimal inhibitory concentration, Pseudomonas #28; settings: Pseudomonas #28; in vitro; read-out: Minimal Inhibitory Concentration
Pseudomonas BRK 12-4-4 = assay: In vitro minimal inhibitory concentration, Pseudomonas BRK 12-4-4; settings: BRK1244
Pseudomonas UI 18 = assay: In vitro minimal inhibitory concentration, Pseudomonas UI 18; settings: UI18
E. Coli. Brig = assay: In vitro minimal inhibitory concentration, E. Coli. Brig; settings: Escherichia coli
E. Coli. Vogel = assay: In vitro minimal inhibitory concentration, E. Coli. Vogel; settings: Escherichia coli
Prot Vulg. = assay: In vitro minimal inhibitory concentration, Prot Vulg.
Entero Cloac. IM 11 = assay: In vitro minimal inhibitory concentration, Entero Cloac. IM 11
Serr. Mar. IMM 16 = assay: In vitro minimal inhibitory concentration, Serr. Mar. IMM 16
Klebs. Pneum. MGH 2 = assay: In vitro minimal inhibitory concentration, Klebs. Pneum. MGH 2
Strep. fec. MGH 2 = assay: In vitro minimal inhibitory concentration, Strep. fec. MGH 2
Staph UC76 = assay: In vitro minimal inhibitory concentration, Staph UC76
Staph S 18713 = assay: In vitro minimal inhibitory concentration, Staph S 18713

SMILES | MIC (Pseudomonas #28) [µg/mL] | MIC (Pseudomonas BRK 12-4-4) [µg/mL] | MIC (Pseudomonas UI 18) [µg/mL] | MIC (E. Coli. Brig) [µg/mL] | MIC (E. Coli. Vogel) [µg/mL] | MIC (Prot Vulg.) [µg/mL] | MIC (Entero Cloac. IM 11) [µg/mL] | MIC (Serr. Mar. IMM 16) [µg/mL] | MIC (Klebs. Pneum. MGH 2) [µg/mL] | MIC (Strep. fec. MGH 2) [µg/mL] | MIC (Staph UC76) [µg/mL] | MIC (Staph S 18713) [µg/mL]
CC(=O)N1CCC[C@H]1C(=O)Nc1ccc(-c2ccc(C(=O)N[C@@H](C(=O)NC3C(=O)N4C(C(=O)O)=C(CSc5nnnn5C)CSC34)c3ccccc3)c(=O)[nH]2)cc1 (stereo partly drawn) [Example 2, N-[6-[4-(N-Acetyl-L-prolylamino)phenyl]-1,2-dihydro-2-oxonicotinyl]-7-[D-2-amino-2-phenylacetamido]-3-[[(1-methyl-1H-tetrazol-5-yl)thio]methyl]-3-cephem-4-carboxylic acid] | 12.5 (≈ 15.4 µM) | 25 (≈ 30.8 µM) | 12.5 (≈ 15.4 µM) | 6.3 (≈ 7.75 µM) | 1.6 (≈ 1.97 µM) | 25 (≈ 30.8 µM) | 6.3 (≈ 7.75 µM) | 12.5 (≈ 15.4 µM) | 1.6 (≈ 1.97 µM) | 25 (≈ 30.8 µM) | 0.8 (≈ 0.984 µM) | 3.1 (≈ 3.81 µM)
CC(=O)N[C@@H](C)C(=O)Nc1ccc(-c2ccc(C(=O)N[C@@H](C(=O)NC3C(=O)N4C(C(=O)O)=C(COC(C)=O)CSC34)c3ccccc3)c(=O)[nH]2)cc1 (stereo partly drawn) [Example 5, N-[6-[4-(N-Acetyl-L-alanylamino)phenyl]-1,2-dihydro-2-oxonicotinyl]-6-[D-2-amino-2-phenylacetamido]-3-acetoxymethyl-3-cephem-4-carboxylic acid] | 6.3 (≈ 8.62 µM) | 12.5 (≈ 17.1 µM) | 6.3 (≈ 8.62 µM) | 12.5 (≈ 17.1 µM) | 1.6 (≈ 2.19 µM) | 25 (≈ 34.2 µM) | 12.5 (≈ 17.1 µM) | 50 (≈ 68.4 µM) | 12.5 (≈ 17.1 µM) | 25 (≈ 34.2 µM) | 0.8 (≈ 1.09 µM) | 1.6 (≈ 2.19 µM)
CC(=O)OCC1=C(C(=O)O)N2C(=O)C(NC(=O)[C@H](NC(=O)c3ccc(-c4ccc(NC(=O)[C@@H]5CCC(=O)N5)cc4)[nH]c3=O)c3ccccc3)C2SC1 (stereo partly drawn) [Example 6, N-[6-[4-(L-Pyroglutamylamino)phenyl]-1,2-dihydro-2-oxonicotinyl]-7-[D-2-amino-2-phenylacetamido]-3-acetoxymethyl-3-cephem-4-carboxylic acid] | 12.5 (≈ 17.2 µM) | 12.5 (≈ 17.2 µM) | 6.3 (≈ 8.65 µM) | 25 (≈ 34.3 µM) | 3.1 (≈ 4.25 µM) | 25 (≈ 34.3 µM) | 12.5 (≈ 17.2 µM) | 50 (≈ 68.6 µM) | 6.3 (≈ 8.65 µM) | 25 (≈ 34.3 µM) | 0.8 (≈ 1.1 µM) | 3.1 (≈ 4.25 µM)
Cn1nnnc1SCC1=C(C(=O)O)N2C(=O)C(NC(=O)[C@H](NC(=O)c3ccc(-c4ccc(NC(=O)[C@@H]5CCC(=O)N5)cc4)[nH]c3=O)c3ccccc3)C2SC1 (stereo partly drawn) [Example 7, N-[6-[4-(L-Pyroglutamylamino)phenyl]-1,2-dihydro-2-oxonicotinyl]-7-[D-2-amino-2-phenylacetamido]-3-[[(1-methyl-1H-tetrazol-5-yl)thio]methyl]-3-cephem-4-carboxylic acid] | 6.3 (≈ 8.03 µM) | 6.3 (≈ 8.03 µM) | 6.3 (≈ 8.03 µM) | 3.1 (≈ 3.95 µM) | 0.8 (≈ 1.02 µM) | 12.5 (≈ 15.9 µM) | 3.1 (≈ 3.95 µM) | 12.5 (≈ 15.9 µM) | 1.6 (≈ 2.04 µM) | 12.5 (≈ 15.9 µM) | 0.4 (≈ 0.51 µM) | 3.1 (≈ 3.95 µM)
CC(=O)N[C@H](C)C(=O)Nc1ccc(-c2ccc(C(=O)N[C@@H](C(=O)NC3C(=O)N4C(C(=O)O)=C(COC(C)=O)CSC34)c3ccc(O)cc3)c(=O)[nH]2)cc1 (stereo partly drawn) [Example 8, N-[6-[4-(N-Acetyl-D-alanylamino)phenyl]-1,2-dihydro-2-oxonicotinyl]-7-[D-2-amino-2-(4-hydroxyphenyl)acetamido]-3-acetoxymethyl-3-cephem-4-carboxylic acid] | 1.6 (≈ 2.14 µM) | 6.3 (≈ 8.44 µM) | 3.1 (≈ 4.15 µM) | 12.5 (≈ 16.7 µM) | 3.1 (≈ 4.15 µM) | 12.5 (≈ 16.7 µM) | 12.5 (≈ 16.7 µM) | 50 (≈ 67 µM) | 6.3 (≈ 8.44 µM) | 12.5 (≈ 16.7 µM) | 1.6 (≈ 2.14 µM) | 6.3 (≈ 8.44 µM)
CC(=O)N[C@@H](CCC(N)=O)C(=O)Nc1ccc(-c2ccc(C(=O)N[C@@H](C(=O)NC3C(=O)N4C(C(=O)O)=C(CSc5nnnn5C)CSC34)c3ccccc3)c(=O)[nH]2)cc1 (stereo partly drawn) [Example 9, N-[6-[4-(N-Acetyl-L-glutaminylamino)phenyl]-1,2-dihydro-2-oxonicotinyl]-7-(D-2-amino-2-phenylacetamido]-3-[[(1-methyl-1H-tetrazol-5-yl)thio]methyl]-3-cephem-4-carboxylic acid] | 3.1 (≈ 3.67 µM) | 6.3 (≈ 7.47 µM) | 6.3 (≈ 7.47 µM) | 3.1 (≈ 3.67 µM) | 0.4 (≈ 0.474 µM) | 6.3 (≈ 7.47 µM) | 1.6 (≈ 1.9 µM) | 12.5 (≈ 14.8 µM) | 0.8 (≈ 0.948 µM) | 25 (≈ 29.6 µM) | 0.4 (≈ 0.474 µM) | 3.1 (≈ 3.67 µM)
CC(=O)NC(C)(C)C(=O)Nc1ccc(-c2ccc(C(=O)N[C@@H](C(=O)NC3C(=O)N4C(C(=O)O)=C(COC(C)=O)CSC34)c3ccccc3)c(=O)[nH]2)cc1 (stereo partly drawn) [Example 11, N-[6-[4-(N-Acetyl-alpha-aminoisobutyrylamino)phenyl]-1,2-dihydro-2-oxonicotinyl]-7-[D-2-amino-2-phenylacetamido]-3-acetoxymethyl-3-cephem-4-carboxylicacid] | 3.1 (≈ 4.16 µM) | 6.3 (≈ 8.46 µM) | 6.3 (≈ 8.46 µM) | 12.5 (≈ 16.8 µM) | 3.1 (≈ 4.16 µM) | 12.5 (≈ 16.8 µM) | 12.5 (≈ 16.8 µM) | 50 (≈ 67.1 µM) | 12.5 (≈ 16.8 µM) | 25 (≈ 33.6 µM) | 0.4 (≈ 0.537 µM) | 3.1 (≈ 4.16 µM)
CC(=O)OCC1=C(C(=O)O)N2C(=O)C(NC(=O)[C@H](NC(=O)c3ccc(-c4ccc(NC(=O)[C@@H]5CCCN5C(C)=O)cc4)[nH]c3=O)c3ccccc3)C2SC1 (stereo partly drawn) [Example 12, N-[6-[4-(N-Acetyl-L-prolylamino)phenyl]-1,2-dihydro-2-oxonicotinyl]-7-[D-2-amino-2-phenylacetamido]-3-acetoxymethyl-3-cephem-4-carboxylic acid] | 6.3 (≈ 8.32 µM) | 12.5 (≈ 16.5 µM) | 6.3 (≈ 8.32 µM) | 6.3 (≈ 8.32 µM) | 3.1 (≈ 4.1 µM) | 25 (≈ 33 µM) | 12.5 (≈ 16.5 µM) | 50 (≈ 66.1 µM) | 6.3 (≈ 8.32 µM) | 12.5 (≈ 16.5 µM) | 0.8 (≈ 1.06 µM) | 3.1 (≈ 4.1 µM)
CC(=O)N[C@H](CC(N)=O)C(=O)Nc1ccc(-c2ccc(C(=O)N[C@@H](C(=O)NC3C(=O)N4C(C(=O)O)=C(COC(C)=O)CSC34)c3ccccc3)c(=O)[nH]2)cc1 (stereo partly drawn) [Example 13, N-[6-[4-(N-Acetyl-D-aspariginylamino)phenyl]-1,2-dihydro-2-oxonicotinyl]-7-[D-2-amino-2-phenylacetamido]-3-acetoxymethyl-3-cephem-4-carboxylic acid] | 12.5 (≈ 16.2 µM) | 12.5 (≈ 16.2 µM) | 6.3 (≈ 8.14 µM) | 12.5 (≈ 16.2 µM) | 3.1 (≈ 4.01 µM) | 25 (≈ 32.3 µM) | 12.5 (≈ 16.2 µM) | > 50 | 6.3 (≈ 8.14 µM) | 25 (≈ 32.3 µM) | 0.8 (≈ 1.03 µM) | 6.3 (≈ 8.14 µM)
CC(=O)N[C@@H](CCC(N)=O)C(=O)Nc1ccc(-c2ccc(C(=O)N[C@@H](C(=O)NC3C(=O)N4C(C(=O)O)=C(COC(C)=O)CSC34)c3ccccc3)c(=O)[nH]2)cc1 (stereo partly drawn) [Example 14, N-[6-[4-(N-Acetyl-L-glutaminylamino)phenyl]-1,2-dihydro-2-oxonicotinyl]-7-[D-2-amino-2-phenylacetamido]-3-acetoxymethyl-3-cephem-4-carboxylic acid] | 3.1 (≈ 3.93 µM) | 6.3 (≈ 8 µM) | 6.3 (≈ 8 µM) | 6.3 (≈ 8 µM) | 1.6 (≈ 2.03 µM) | 25 (≈ 31.7 µM) | 12.5 (≈ 15.9 µM) | 50 (≈ 63.5 µM) | 3.1 (≈ 3.93 µM) | 12.5 (≈ 15.9 µM) | 0.8 (≈ 1.02 µM) | 1.6 (≈ 2.03 µM)

Source: patent US4311698A, “Aminoacid derivatives of cephalosporin compounds” (priority 1980, dated 1982)
